These molecules were tested against T1, human oxytocin receptor (Homo sapiens, UniProt P30559) (assay: Oxytocin binding in CHO cell membranes expressing human oxytocin receptors ([3H]oxytocin radioligand binding)). Conditions: 100 nM.
T1 construct: host or cells: CHO cells, stably transfected (pcDNA3.1 vector)
T1 sequence (P30559 1-389): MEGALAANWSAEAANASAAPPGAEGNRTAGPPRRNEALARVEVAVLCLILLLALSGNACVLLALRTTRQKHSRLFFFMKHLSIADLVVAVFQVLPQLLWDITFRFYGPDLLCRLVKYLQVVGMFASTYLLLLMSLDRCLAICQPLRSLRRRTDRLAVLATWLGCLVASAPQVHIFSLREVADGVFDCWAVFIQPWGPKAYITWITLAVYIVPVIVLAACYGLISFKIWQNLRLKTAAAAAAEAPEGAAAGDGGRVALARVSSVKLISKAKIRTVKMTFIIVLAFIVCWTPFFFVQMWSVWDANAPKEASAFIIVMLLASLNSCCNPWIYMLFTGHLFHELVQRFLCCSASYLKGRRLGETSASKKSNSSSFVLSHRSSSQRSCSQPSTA
Protocol: Oxytocin Binding in Chinese Hamster Ovary Cell Membranes Expressing Human Oxytocin Receptors
Cell Culture medium (e.g. 30 mL for 1:30 split) is immediately added and mixed well to inactivate trypsin. 1 mL of detached cells is added to new culture flasks containing fresh Cell Culture medium (e.g. into 25 mL per T-150 flask), and mixed gently. The cells are incubated at 37° C. in 5% CO2. The medium is changed at 3 to 4 days interval (or as appropriate). […] All steps are done under sterile conditions.
The cells are washed twice gently with Hank's Balanced Salt solution (e.g., use 10 mL per T-150 flask). […] The contents are transferred to centrifuge tubes (50 mL size) kept in ice bath. All subsequent steps are done at 4° C. The tubes are centrifuged at 300×g for 15 min (1380 rpm on SORVAL, Model RT6000D, using rotor for 50 mL tubes). The supernatant is discarded and the cells suspended in homogenizing buffer (10 mM Tris-HCl containing 0.25 M sucrose and 1 mM EDTA, pH 7.4) ensuring that the volume of the buffer is about ten times the volume of the cell pellet. The cells are pooled into a centrifuge tube (50 mL) and homogenized with a Polytron at setting 6 for 10 sec. The homogenate is transferred into a Potter-Elvjehm homogenizer and homogenized with 3 strokes. The homogenate is centrifuged at 1500×g for 10 min at 4° C. (3100 rpm using SORVAL, model RT6000D, using a rotor for 50 mL tubes). The pellet is discarded. The supernatant is centrifuged at 100,000×g for 60 min. at 4° C. (Beckman L8-80M ultracentrifuge; spin at 37,500 rpm with rotor type 70 Ti for 50 mL tubes; 38,000 rpm with rotor type 8OTi for 15 mL tubes; or 35,800 rpm with rotor type 45Ti). The supernantant is discarded and the pellet suspended in 3 to 4 mL of Tris buffer (50 mM TRIS-HCl, pH 7.4). The protein content is estimated by the Bradford or Lowry method. The volume of the membrane suspension is adjusted with the membrane buffer (50 mM Tris-HCl containing 0.1% BSA and 0.1 mM PMSF) to give 3.0 mg/mL (or as appropriate) of protein. The membranes are aliquoted and stored at −70° C.
In wells of a 96-well format microtiter plate, is added 90, 110 or 130 μL (to make up a final volume of 200 μL) of assay buffer containing 50 mM of Tris-HCl (pH 7.4), […], 1 mg % aprotinin, 1 mg % leupeptin, 2 mg % 1,10-phenanthroline, 10 mg % trypsin inhibitor, and 0.1 mM PMSF. The inhibitors are added on the day of the experiment. The components are mixed at room temperature, and then kept in ice bath following adjustment of the pH to 7.4. […] For oxytocin and other peptide ligands, 20 μL of 50% DMSO is added and the assay buffer volume is adjusted accordingly. To each well is added 50 μL of frozen membrane suspension thawed immediately prior to use and diluted in assay buffer to the required concentration (equivalent to 25 to 50 μg of protein/well as needed). 20 μL of 8 nM [^3H]oxytocin in the assay buffer, prepared just before use is added and incubated at room temperature for 60 min. shaking the plate on a mechanical shaker for the first 15 min. The incubation is stopped by rapid filtration of the plate contents followed by washing with ice-cold buffer (50 mM Tris-HCl, pH 7.4) using a cell harvester (Tomtek and Printed filtermat-B filter paper). The filter paper is thoroughly dried (7–12 min. in a microwave oven) and impregnated with MeltiLex B/H melt-on scintillation wax sheets and the radioactivity counted in a betaplate scintillation counter.
Binding data is either reported as percent inhibition at a certain concentration or if an IC50 was calculated, as a nanomolar concentration.

| Compound | OT % inhibition @ 100 nM [%] |
| --- | --- |
| Cc1cc(C(=O)N2Cc3ccc(C(=O)NCCc4ccccn4)n3Cc3ccccc32)ccc1-c1ccccc1C(F)(F)F [Example 61, 10-{[2-Methyl-2′-trifluoromethyl=[1,1′-biphenyl]-4-yl]carbonyl}-N-[2-(2-pyridinyl)ethyl]-10,11-dihydro-5H-pyrrolo[2,1-c][1,4]benzodiazepine-3-carboxamide] | 26 |

Same assay, conditions: 100 nM, read-out: OT % inhibition @ 100 nM

| Compound | inhibition at 0.1 µM [%] |
| --- | --- |
| COc1cccc(-c2cc(OC)c(C(=O)N3Cc4ccc(C(=O)NCc5cccnc5)n4Cc4ccccc43)cc2Cl)c1 [Example 43, 10-[(6-Chloro-3,3′-dimethoxy-[1,1′-biphenyl]-4-yl)carbonyl]-N-(3-pyridinylmethyl)-10,11-dihydro-5H-pyrrolo[2,1-c][1,4]benzodiazepine-3-carboxamide] | 18 |
| COc1cc(C(=O)N2Cc3ccc(C(=O)NCc4cccnc4)n3Cc3ccccc32)ccc1-c1cccc2ccccc12 [Example 44, 10-[3-Methoxy-4-(naphthalen-1-yl)benzoyl]-N-(3-pyridinylmethyl)-10,11-dihydro-5H-pyrrolo[2,1-c][1,4]benzodiazepine-3-carboxamide] | 22 |
| COc1ccccc1-c1ccc(C(=O)N2Cc3ccc(C(=O)NCc4cccnc4)n3Cc3ccccc32)cc1OC [Example 45, 10-[(2,2′-Dimethoxy-[1,1′-biphenyl]-4-yl)carbonyl]-N-(3-pyridinylmethyl)-10,11-dihydro-5H-pyrrolo[2,1-c][1,4]benzodiazepine-3-carboxamide] | 37 |
| COc1cccc(-c2ccc(C(=O)N3Cc4ccc(C(=O)NCc5cccnc5)n4Cc4ccccc43)cc2OC)c1 [Example 46, 10-[(2,3′-Dimethoxy-[1,1′-biphenyl]-4-yl)carbonyl]-N-(3-pyridinylmethyl)-10,11-dihydro-5H-pyrrolo[2,1-c][1,4]benzodiazepine-3-carboxamide] | 31 |
| O=C(NCc1cccnc1)c1ccc2n1Cc1ccccc1N(C(=O)c1ccc(-c3cccc4ccccc34)cc1Cl)C2 [Example 47, 10-[2-Chloro-4-(naphthalen-1-yl)benzoyl]-N-(3-pyridinylmethyl)-10,11-dihydro-5H-pyrrolo[2,1-c][1,4]benzodiazepine-3-carboxamide] | 1 |
| Cc1cc(C(=O)N2Cc3ccc(C(=O)NCc4cccnc4)n3Cc3ccccc32)ccc1-c1ccccc1C(F)(F)F [Example 48, 10-{[2-Methyl-2′-trifluoromethyl-[1,1′-biphenyl]-4-yl]carbonyl}-N-(3-pyridinylmethyl)-10,11-dihydro-5H-pyrrolo[2,1-c][1,4]benzodiazepine-3-carboxamide] | 15 |
| COc1ccccc1-c1ccc(C(=O)N2Cc3ccc(C(=O)NCCc4ccccn4)n3Cc3ccccc32)cc1C [Example 49, 10-[(2′-Methoxy-2-methyl-[1,1′-biphenyl]-4-yl)carbonyl]-N-[2-(2-pyridinyl)ethyl]-10,11-dihydro-5H-pyrrolo[2,1-c][1,4]benzodiazepine-3-carboxamide] | 58 |
| Cc1ccccc1-c1ccc(C(=O)N2Cc3ccc(C(=O)NCCc4ccccn4)n3Cc3ccccc32)cc1C [Example 50, 10-[(2,2′-Dimethyl-[1,1′-biphenyl]-4-yl)carbonyl]-N-[2-(2-pyridinyl)ethyl]-10,11-dihydro-5H-pyrrolo[2,1-c][1,4]benzodiazepine-3-carboxamide] | 67 |
| COc1cccc(-c2ccc(C(=O)N3Cc4ccc(C(=O)NCCc5ccccn5)n4Cc4ccccc43)cc2C)c1 [Example 51, 10-[(3′-Methoxy-2-methyl-[1,1′-biphenyl]-4-yl)carbonyl]-N-[2-(2-pyridinyl)ethyl]-10,11-dihydro-5H-pyrrolo[2,1-c][1,4]benzodiazepine-3-carboxamide] | 31 |
| COc1ccccc1-c1ccc(C(=O)N2Cc3ccc(C(=O)NCCc4ccccn4)n3Cc3ccccc32)cc1 [Example 52, 10-[(2′-Methoxy-[1,1′-biphenyl]-4-yl)carbonyl]-N-[2-(2-pyridinyl)ethyl]-10,11-dihydro-5H-pyrrolo[2,1-c][1,4]benzodiazepine-3-carboxamide] | 51 |
| Cc1ccccc1-c1ccc(C(=O)N2Cc3ccc(C(=O)NCCc4ccccn4)n3Cc3ccccc32)cc1 [Example 53, 10-[(2′-Methyl-[1,1′-biphenyl]-4-yl)carbonyl]-N-[2-(2-pyridinyl)ethyl]-10,11-dihydro-5H-pyrrolo[2,1-c][1,4]benzodiazepine-3-carboxamide] | 6 |
| COc1cc(C(=O)N2Cc3ccc(C(=O)NCCc4ccccn4)n3Cc3ccccc32)ccc1-c1ccccc1C [Example 54, 10-[(2-Methoxy-2′-methyl-[1,1′-biphenyl]-4-yl)carbonyl]-N-[2-(2-pyridinyl)ethyl]-10,11-dihydro-5H-pyrrolo[2,1-c][1,4]benzodiazepine-3-carboxamide] | 55 |
| COc1cc(-c2ccccc2C)c(Cl)cc1C(=O)N1Cc2ccc(C(=O)NCCc3ccccn3)n2Cc2ccccc21 [Example 55, 10-[(6-Chloro-3-methoxy-2′-methyl-[1,1′-biphenyl]-4-yl)carbonyl]-N-[2-(2-pyridinyl)ethyl]-10,11-dihydro-5H-pyrrolo[2,1-c][1,4]benzodiazepine-3-carboxamide] | 50 |
| COc1cccc(-c2cc(OC)c(C(=O)N3Cc4ccc(C(=O)NCCc5ccccn5)n4Cc4ccccc43)cc2Cl)c1 [Example 56, 10-[(6-Chloro-3,3′-dimethoxy-[1,1′-biphenyl]-4-yl)carbonyl]-N-[2-(2-pyridinyl)ethyl]-10,11-dihydro-5H-pyrrolo[2,1-c][1,4]benzodiazepine-3-carboxamide] | 31 |
| COc1cc(C(=O)N2Cc3ccc(C(=O)NCCc4ccccn4)n3Cc3ccccc32)ccc1-c1cccc2ccccc12 [Example 57, 10-[3-Methoxy-4-(naphthalen-1-yl)benzoyl]-N-[2-(2-pyridinyl)ethyl]-10,11-dihydro-5H-pyrrolo[2,1-c][1,4]benzodiazepine-3-carboxamide] | 32 |
| COc1ccccc1-c1ccc(C(=O)N2Cc3ccc(C(=O)NCCc4ccccn4)n3Cc3ccccc32)cc1OC [Example 58, 10-[(2,2′-Dimethoxy-[1,1′-biphenyl]-4-yl)carbonyl]-N-[2-(2-pyridinyl)ethyl]-10,11-dihydro-5H-pyrrolo[2,1-c][1,4]benzodiazepine-3-carboxamide] | 37 |
| COc1cccc(-c2ccc(C(=O)N3Cc4ccc(C(=O)NCCc5ccccn5)n4Cc4ccccc43)cc2OC)c1 [Example 59, 10-[(2,3′-Dimethoxy-[1,1′-biphenyl]-4-yl)carbonyl]-N-[2-(2-pyridinyl)ethyl]-10,11-dihydro-5H-pyrrolo[2,1-c][1,4]benzodiazepine-3-carboxamide] | 40 |
| O=C(NCCc1ccccn1)c1ccc2n1Cc1ccccc1N(C(=O)c1ccc(-c3cccc4ccccc34)cc1Cl)C2 [Example 60, 10-[2-Chloro-4-(naphthalen-1-yl)benzoyl]-N-[2-(2-pyridinyl)ethyl]-10,11-dihydro-5H-pyrrolo[2,1-c][1,4]benzodiazepine-3-carboxamide] | 11 |
